Here are results for 26 molecules from US12404260B2, “Pyridine rings containing derivatives as MALT1 inhibitors” (Janssen Pharmaceutica NV, priority 2019, dated 2025).

pIC50: −log10 of the molar value.

In experiment [1] the target is T1, full-length MALT1 protein (Strep-MALT1(1-824)-His) (Homo sapiens, UniProt Q9UDY8).
T1 construct: full-length MALT1 protein (Strep-MALT1(1-824)-His) purified from baculovirus-infected insect cells; Strep (N); His (C); made in house; host or cells: baculovirus-infected insect cells
T1 sequence (Q9UDY8 1-824): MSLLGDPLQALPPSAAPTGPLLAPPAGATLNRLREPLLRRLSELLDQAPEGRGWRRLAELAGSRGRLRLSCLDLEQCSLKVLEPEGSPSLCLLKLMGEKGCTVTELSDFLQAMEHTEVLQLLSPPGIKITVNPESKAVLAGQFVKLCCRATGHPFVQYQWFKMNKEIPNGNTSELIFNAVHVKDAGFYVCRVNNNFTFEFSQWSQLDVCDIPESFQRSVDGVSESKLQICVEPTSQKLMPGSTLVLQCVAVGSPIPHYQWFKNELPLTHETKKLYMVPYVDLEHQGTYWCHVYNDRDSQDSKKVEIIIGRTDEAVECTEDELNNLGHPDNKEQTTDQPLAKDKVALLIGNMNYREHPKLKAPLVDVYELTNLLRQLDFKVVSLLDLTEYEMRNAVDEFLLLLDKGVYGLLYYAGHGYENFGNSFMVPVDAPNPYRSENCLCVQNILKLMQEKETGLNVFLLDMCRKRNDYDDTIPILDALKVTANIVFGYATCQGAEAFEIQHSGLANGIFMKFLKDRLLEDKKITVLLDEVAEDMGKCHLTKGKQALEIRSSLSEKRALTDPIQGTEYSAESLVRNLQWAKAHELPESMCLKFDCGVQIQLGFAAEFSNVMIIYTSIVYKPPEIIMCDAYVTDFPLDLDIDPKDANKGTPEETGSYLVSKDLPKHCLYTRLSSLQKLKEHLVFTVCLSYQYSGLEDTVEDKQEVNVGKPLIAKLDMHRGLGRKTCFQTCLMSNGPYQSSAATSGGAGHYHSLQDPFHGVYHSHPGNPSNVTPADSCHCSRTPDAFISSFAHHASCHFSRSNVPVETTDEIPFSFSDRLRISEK
In words: MALT1 Biochemical Protease Assay. The conditions noted are these: 10 nM FL MALT1, 200 μM Ac-LRSR-AMC, 50 min pre-incubation, 4 h at RT; read-out: MALT1_Biochemical activity (Ac-LRSR-amc) IC50. The procedure:
MALT1 protease activity was assessed in an in vitro assay using a tetrapeptide as substrate and full-length MALT1 protein (Strep-MALT1(1-824)-His) purified from baculovirus-infected insect cells. The tetrapeptide LRSR is coupled to AMC (7-amino-4-methylcoumarin) and provides a quenched, fluorescent substrate for the MALT1 protease (SM Biochemicals). Cleavage of AMC from the Arginine residue results in an increase in coumarin fluorescence measured at 460 nm (excitation 355 nm). The final assay buffer consisted of 10 nM FL MALT1 protein, 200 μM Ac-LRSR-AMC, 50 mM Tris pH 7.5, 0.6 M Citrate, 1 mM DTT, 1 mM EDTA, 0.05% BSA and 1.5% DMSO. Test compounds were spotted at 50 nL in 100% DMSO per well of a black 384-Proxiplate (Perkin Elmer). Test compound concentrations ranged from 30 μM to 0.5 nM using 11 dilution steps (1:3). Background signal was measured from control wells containing assay buffer without enzyme which functions as low control (LC). High control (HC) values were generated using the reaction with enzyme but no compound treatment. Compounds were pre-incubated with MALT1 enzyme for 50 minutes at RT. Substrate was added subsequently and fluorescence was measured in Labsystems fluoroskan at excitation 355 nm and emission 460 nm to determine time 0. The reaction was subsequently incubated for 4 h at RT and fluorescence was measured. For IC50 calculations, timepoint 0 was subtracted from the 4 h timepoint to correct for any potential autofluorescence of the compounds. The enzyme reaction was linear during the 4 h incubation period. Characterization of the substrate Ac-LRSR-AMC determined the Michaelis constant KM at 200 μM.
IC50 values were calculated using the following formula (Z prime should be >0.5): […]
A best-fit curve was fitted by a minimum sum of squares method to the plot of % Controlmin vs. compound concentration. From this an IC50 value (inhibitory concentration causing 50% inhibition) can be obtained. An estimate of the slope of the plot in terms of the Hill coefficient was also obtained.
Used in “Lexis Dose Response Curve Fitting” Version 1.0.

Experiment [2] has as its system secretion of IL10 by OCI-LY3 ABC-DLBCL cells. In words: Human IL10 Mesoscale assay (OCI-LY3). In kind it is cell-based. The conditions noted are these: 24 h incubation, IL10 in supernatant. Here is the method:
(§1) NFKB signaling regulates the secretion of multiple cytokines, including IL6 and IL10. Secretion of the cytokines IL6 and IL10 by OCI-LY3 ABC-DLBCL cells was measured using a mesoscale assay. Inhibition of NFKB signaling by MALT1 inhibitors results in a decrease of IL6/10 secretion.
(§2) OCI-LY3 cells were propagated in RPMI-1640 (Sigma Aldrich) supplemented with 10% fetal bovine serum (HyClone), 1 mM sodium pyruvate (Invitrogen), 2 mM L-glutamine (Sigma Aldrich) and 1% PenStrep (Sigma Aldrich). Cell passage number should not exceed 30. Cells should be kept between 0.5-2.5 million cells per mL during culturing and cells should be supplemented every 2-3 days with fresh 50 μM beta-mercaptoethanol. No beta-mercaptoethanol was used during the mesoscale assay.
(§3) For the Mesoscale assay, 100,000 OCI-LY3 cells were seeded per well into black-colored 96-well plates with clear bottom (Corning #3904) and test compounds were added in 9 dilution steps (1:2) ranging from 15 μM to 58.6 nM (final DMSO concentration 0.3%). DMSO control wells were used to determine the maximum signal (High Control (HC)). Treatment with the BTK inhibitor RN486 in a dose range from 30 nM to […] (9 dilutions of 1:2) served as a positive control for NFKB pathway inhibition and was used to determine the maximum inhibition (Low Control (LC)). Compounds and cells were incubated for 24 h at 37° C. and 5% CO2 (assay volume is 150 μL). After 24 h of incubation 50 μL of the supernatant was transferred to a MSD plate (V-Plex Proinflammation Panel 1 (human) kit, Mesoscale (MSD)) and incubated for 2 h with vigorous shaking (600 rpm) at room temperature. Following incubation, plates were washed 3× with PBS+0.05% Tween-20 and 25 μL detection antibody solution (IL6 & IL10 antibodies in diluent 3 (MSD)) was added per well followed by 2 h of incubation with vigorous shaking (600 rpm) at room temperature. After 3× washes with PBS+0.05% Tween-20, plates were incubated with 150 μL 2× Read Buffer T and read on SECTOR imager.

The subject of experiment [3] is secretion of IL6 by OCI-LY3 ABC-DLBCL cells. Description: Human IL6 Mesoscale assay (OCI-LY3). It counts as cell-based. The conditions noted are these: 24 h incubation, IL6 in supernatant. The procedure:
as §1, §2, §3

Turning to `CC[C@@H](OC)c1c(NC(=O)Nc2cnc(-n3nccn3)c(C(F)(F)F)c2)cnc(C)c1C#N` (single isomer, unassigned) [Co. 148], the figures for the pIC50 in experiment [1], in experiment [2] (Homo sapiens) and in experiment [3] (Homo sapiens) were 7.52, ~7.22 and ~7.22, respectively.
For `CO[C@@H](C)c1c(NC(=O)Nc2ccnc(C(F)(F)F)c2)cnc(C)c1C#N` (single isomer, unassigned) [Co. 149], the negative-log IC50 (pIC50) – broadly, −log10 of the IC50, conventionally taken in molar units – in experiment [1] is 5.54; in experiment [2] (Homo sapiens), 5.88; in experiment [3] (Homo sapiens) it was 5.72.
The matching figures for `CC[C@H](OC)c1c(NC(=O)Nc2cnc(-n3nccn3)c(C(F)(F)F)c2)cnc(C)c1C#N` (single isomer, unassigned) [Co. 150]: 7.00, 6.85 and 6.82.
Consider `CNc1ncc(NC(=O)Nc2cnc(-n3nccn3)c(Cl)c2)c([C@H](C)OC)c1Br` (single isomer, unassigned) [Co. 153], for which the values for the pIC50 in experiment [1], in experiment [2] (Homo sapiens) and in experiment [3] (Homo sapiens) were 4.60, 5.06 and 4.93, respectively.
For `CNc1ncc(NC(=O)Nc2cnc(-n3nccn3)c(Cl)c2)c([C@@H](C)OC)c1Br` (single isomer, unassigned) [Co. 154], the pIC50 in experiment [1] was 5.57; in experiment [2] (Homo sapiens) it was 6.15; in experiment [3] (Homo sapiens), 5.96.
Turning to `CO[C@H](C)c1c(NC(=O)Nc2cnc(-n3nccn3)c(Cl)c2)cncc1OC(C)C` [Co. 9], the pIC50 in experiment [1] was 6.77; in experiment [2], 6.77; in experiment [3], 6.72.
For the molecule `COC(C)c1c(Cl)cncc1NC(=O)Nc1cnc(-n2nccn2)c(Cl)c1` (stereo not drawn) [Co. 22], the pIC50 in experiment [1] was 6.54; in experiment [2] (Homo sapiens) it was 6.92; in experiment [3] (Homo sapiens) it was 6.80.
On to `CO[C@H](C)c1c(Cl)cncc1NC(=O)Nc1cnc(-n2nccn2)c(Cl)c1` [Co. 23], for which the pIC50 in experiment [1] is 6.96; in experiment [2] (Homo sapiens) it was 6.92; in experiment [3] (Homo sapiens), 6.74.
As for `CO[C@@H](C)c1c(Cl)cncc1NC(=O)Nc1cnc(-n2nccn2)c(Cl)c1` [Co. 24], the pIC50 in experiment [1] is 5.34; in experiment [2], 5.40; in experiment [3], 5.25.
Turning to `COC(C)c1c(C#N)cncc1NC(=O)Nc1cnc(-n2nccn2)c(Cl)c1` (stereo not drawn) [Co. 25], the pIC50 in experiment [1] was 6.62; in experiment [2] it was 6.74; in experiment [3], 6.66.
Taken in the same sequence, the figures for `CO[C@@H](C)c1c(C#N)cncc1NC(=O)Nc1cnc(-n2nccn2)c(Cl)c1` [Co. 26] were 6.72, 6.92 and 6.59.
Taken in the same sequence, the figures for `CO[C@H](C)c1c(C#N)cncc1NC(=O)Nc1cnc(-n2nccn2)c(Cl)c1` [Co. 27] were 5.68, 5.80 and 5.55.
In the case of `CCOC(=O)c1cncc(NC(=O)Nc2cnc(-n3nccn3)c(Cl)c2)c1[C@@H](C)OC` [Co. 36], the figures for the pIC50 in experiment [1], in experiment [2] and in experiment [3] were 6.64, 6.85 and 6.66, respectively.
The matching figures for `CCOC(=O)c1cncc(NC(=O)Nc2cnc(-n3nccn3)c(Cl)c2)c1[C@H](C)OC` [Co. 37]: 5.83, 5.78 and 5.56.
For the molecule `COC(C)c1c(NC(=O)Nc2cnc(-n3nccn3)c(Cl)c2)cnc(C)c1Br` (stereo not drawn) [Co. 40], the negative-log IC50 (pIC50) is 7.30 in experiment [1], 7.10 in experiment [2] and 7.00 in experiment [3].
The matching figures for `COc1c(C)ncc(NC(=O)Nc2cnc(-n3nccn3)c(Cl)c2)c1[C@@H](C)OC` [Co. 42]: 6.27, 6.01 and 5.96.
Taken in the same sequence, the figures for `COc1c(C)ncc(NC(=O)Nc2cnc(-n3nccn3)c(Cl)c2)c1[C@H](C)OC` [Co. 43] were 4.92, < 4.82 and < 4.82.
Taken in the same sequence, the figures for `CO[C@H](C)c1c(NC(=O)Nc2cnc(-n3nccn3)c(Cl)c2)cnc(C)c1Br` [Co. 45] were 7.70, 7.30 and 7.22.
In the case of `CO[C@@H](C)c1c(NC(=O)Nc2cnc(-n3nccn3)c(Cl)c2)cnc(C)c1Br` [Co. 46], the pIC50 in experiment [1] is 6.24; in experiment [2], 6.07; in experiment [3], 6.12.
Taken in the same sequence, the figures for `CO[C@H](C)c1c(NC(=O)Nc2cnc(C3CC3)c(C(F)(F)F)c2)cnc(C)c1Br` [Co. 52] were 5.99, 6.15 and 5.84.
Consider `CO[C@@H](C)c1c(NC(=O)Nc2cnc(C3CC3)c(C(F)(F)F)c2)cnc(C)c1Br` [Co. 53], for which the pIC50 in experiment [1] is < 4.52; in experiment [2], < 4.82; in experiment [3] it was < 4.82.
For the molecule `CO[C@H](C)c1c(NC(=O)Nc2cnc(C3CC3)c(Cl)c2)cnc(C)c1Br` [Co. 55], the negative-log IC50 (pIC50) in experiment [1] is 6.96; in experiment [2], 6.68; in experiment [3], 6.24.
Taken in the same sequence, the figures for `CO[C@@H](C)c1c(NC(=O)Nc2cnc(C3CC3)c(Cl)c2)cnc(C)c1Br` [Co. 56] were 5.60, 5.03 and < 4.82.
In the case of `CO[C@H](C)c1c(NC(=O)Nc2cnc(-n3nccn3)c(C(F)(F)F)c2)cnc(C)c1Br` [Co. 58], the values for the pIC50 in experiment [1], in experiment [2] and in experiment [3] were 6.70, 6.52 and 6.12, respectively.
Taken in the same sequence, the figures for `CO[C@@H](C)c1c(NC(=O)Nc2cnc(-n3nccn3)c(Cl)c2)cnc(C)c1C#N` [Co. 61] were 7.40, 7.05 and 6.89.
`CO[C@H](C)c1c(NC(=O)Nc2cnc(-n3nccn3)c(Cl)c2)cnc(C)c1C#N` [Co. 62]: the pIC50 in experiment [1] is 6.66; in experiment [2], 6.35; in experiment [3], 6.12.
